Assay results published in ChEMBL document CHEMBL4418303, “1-cyano-pyrrolidine derivatives as inhibitors of usp30” (2017).

Each compound was assayed against T1, Ubiquitin carboxyl-terminal hydrolase 30 (Homo sapiens, UniProt Q70CQ3) (assay: Inhibition of untagged human USP30 catalytic domain (57 to 517 residues) expressed in Escherichia coli using TAMRA labeled ubiquitin peptide as substrate preincubated for 30 min followed by substrate addition and measured after 2 hrs by fluorescence polarization assay).
T1 sequence (Q70CQ3 whole entry): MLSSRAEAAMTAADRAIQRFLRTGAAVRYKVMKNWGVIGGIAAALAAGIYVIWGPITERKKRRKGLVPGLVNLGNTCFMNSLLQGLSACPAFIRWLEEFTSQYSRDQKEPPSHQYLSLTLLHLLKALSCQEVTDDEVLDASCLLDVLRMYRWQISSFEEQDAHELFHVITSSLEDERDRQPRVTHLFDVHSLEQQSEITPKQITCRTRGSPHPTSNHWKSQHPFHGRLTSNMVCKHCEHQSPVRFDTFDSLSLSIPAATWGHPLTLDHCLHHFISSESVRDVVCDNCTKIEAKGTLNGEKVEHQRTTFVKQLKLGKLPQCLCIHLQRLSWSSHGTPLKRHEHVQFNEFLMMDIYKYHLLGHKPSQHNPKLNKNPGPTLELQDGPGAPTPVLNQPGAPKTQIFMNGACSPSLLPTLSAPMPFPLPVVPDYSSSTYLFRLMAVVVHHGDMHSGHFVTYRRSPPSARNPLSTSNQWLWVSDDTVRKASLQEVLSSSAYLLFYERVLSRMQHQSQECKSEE

| IC50 [nM] | Compound |
| --- | --- |
| 1000 to 10000 | N#CN1CC[C@@H](N2Cc3ccnc(N4CCOCC4)c3NS2(=O)=O)C1 |
| 100 to 1000 | CN1c2ccc(-c3ccccc3)cc2CN([C@@H]2CCN(C#N)C2)S1(=O)=O |
| 1000 to 10000 | CN1c2ccccc2CN([C@@H]2CCN(C#N)C2)S1(=O)=O |
